# Laboratory results taken from ChEMBL document CHEMBL5649169 (ChemMedChem, 2018).
# Assays:
# [1] = molecular target: Synaptophysin-like protein 1 (Homo sapiens) (UniProt Q16563)
# [2] = molecular target: Peroxiredoxin-4 (Homo sapiens) (UniProt Q13162)
# [3] = molecular target: Minor histocompatibility antigen H13 (Homo sapiens) (UniProt Q8TCT9)
# [4] = molecular target: Very-long-chain enoyl-CoA reductase (Homo sapiens) (UniProt Q9NZ01)
# [5] = molecular target: Dual specificity mitogen-activated protein kinase kinase 1 (Homo sapiens) (UniProt Q02750)
# [6] = molecular target: CDP-diacylglycerol--inositol 3-phosphatidyltransferase (Homo sapiens) (UniProt O14735)
# CDP-diacylglycerol--inositol 3-phosphatidyltransferase (Homo sapiens), sequence (O14735 whole entry): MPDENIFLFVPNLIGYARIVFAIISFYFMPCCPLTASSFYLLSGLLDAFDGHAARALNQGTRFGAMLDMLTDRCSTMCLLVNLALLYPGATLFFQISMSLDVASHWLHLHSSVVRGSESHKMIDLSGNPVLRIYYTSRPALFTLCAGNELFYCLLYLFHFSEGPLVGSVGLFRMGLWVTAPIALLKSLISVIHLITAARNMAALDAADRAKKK
# [7] = molecular target: Large ribosomal subunit protein uL5 (Homo sapiens) (UniProt P62913)
# [8] = molecular target: Enhancer of rudimentary homolog (Homo sapiens) (UniProt P84090)
# [9] = molecular target: Dopamine beta-hydroxylase (Homo sapiens) (UniProt P09172)
# [10] = molecular target: Sterol O-acyltransferase 1 (Homo sapiens) (UniProt P35610)
# [11] = molecular target: Puromycin-sensitive aminopeptidase (Homo sapiens) (UniProt P55786)
# [12] = molecular target: Integrin alpha-6 (Homo sapiens) (UniProt P23229)
# [13] = molecular target: 5'-3' exoribonuclease 2 (Homo sapiens) (UniProt Q9H0D6)
# [14] = molecular target: Cyclin-dependent kinase 9 (Homo sapiens) (UniProt P50750)
# Cyclin-dependent kinase 9 (Homo sapiens), sequence (P50750 whole entry): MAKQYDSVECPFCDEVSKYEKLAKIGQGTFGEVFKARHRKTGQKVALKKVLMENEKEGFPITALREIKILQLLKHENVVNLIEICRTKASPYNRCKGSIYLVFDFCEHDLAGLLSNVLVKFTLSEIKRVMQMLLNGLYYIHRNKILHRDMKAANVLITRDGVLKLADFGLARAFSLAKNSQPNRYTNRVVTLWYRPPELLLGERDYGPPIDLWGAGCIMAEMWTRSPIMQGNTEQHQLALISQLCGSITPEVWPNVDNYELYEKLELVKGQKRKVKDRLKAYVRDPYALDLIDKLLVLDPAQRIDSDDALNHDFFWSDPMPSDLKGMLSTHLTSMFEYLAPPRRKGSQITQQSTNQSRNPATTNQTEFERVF
# [15] = molecular target: Serine/threonine-protein kinase TBK1 (Homo sapiens) (UniProt Q9UHD2)
# [16] = molecular target: Tyrosine-protein kinase ABL1 (Homo sapiens, UniProt P00519)
# [17] = molecular target: Cyclin-dependent kinase-like 5 (Homo sapiens) (UniProt O76039)
# [18] = molecular target: Ubiquitin-protein ligase E3C (Homo sapiens) (UniProt Q15386)
# [19] = molecular target: Uncharacterized protein FLJ45252 (Homo sapiens) (UniProt Q6ZSR9)
# Uncharacterized protein FLJ45252 (Homo sapiens), sequence (Q6ZSR9 whole entry): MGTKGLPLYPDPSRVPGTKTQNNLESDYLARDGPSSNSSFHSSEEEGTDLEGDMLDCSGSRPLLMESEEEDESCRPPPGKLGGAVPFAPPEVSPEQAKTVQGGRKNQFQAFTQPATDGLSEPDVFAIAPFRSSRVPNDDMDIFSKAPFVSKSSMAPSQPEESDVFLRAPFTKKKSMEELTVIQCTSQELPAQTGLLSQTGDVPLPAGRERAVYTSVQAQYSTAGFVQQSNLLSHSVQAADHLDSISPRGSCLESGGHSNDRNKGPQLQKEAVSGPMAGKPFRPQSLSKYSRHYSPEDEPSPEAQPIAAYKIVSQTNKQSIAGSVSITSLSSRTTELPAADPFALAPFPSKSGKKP
# [20] = molecular target: Tyrosine-protein kinase Lyn (Homo sapiens) (UniProt P07948)
# [21] = molecular target: Coatomer subunit beta (Homo sapiens) (UniProt P53618)
# [22] = molecular target: Eukaryotic translation initiation factor 3 subunit I (Homo sapiens) (UniProt Q13347)
# Eukaryotic translation initiation factor 3 subunit I (Homo sapiens), sequence (Q13347 whole entry): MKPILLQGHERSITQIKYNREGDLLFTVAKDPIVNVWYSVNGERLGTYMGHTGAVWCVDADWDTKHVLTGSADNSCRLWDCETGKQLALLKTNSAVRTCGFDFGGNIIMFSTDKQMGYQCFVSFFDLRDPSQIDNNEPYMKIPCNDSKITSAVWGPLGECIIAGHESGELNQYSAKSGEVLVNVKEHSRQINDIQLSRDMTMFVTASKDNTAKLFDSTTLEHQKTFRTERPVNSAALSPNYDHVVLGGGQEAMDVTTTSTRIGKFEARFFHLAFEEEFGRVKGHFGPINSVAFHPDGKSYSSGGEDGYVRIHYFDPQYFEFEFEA
# [23] = molecular target: Conserved oligomeric Golgi complex subunit 4 (Homo sapiens) (UniProt Q9H9E3)
# [24] = molecular target: Tryptophan--tRNA ligase, cytoplasmic (Homo sapiens) (UniProt P23381)
# [25] = molecular target: Holocytochrome c-type synthase (Homo sapiens) (UniProt P53701)
# Holocytochrome c-type synthase (Homo sapiens), sequence (P53701 whole entry): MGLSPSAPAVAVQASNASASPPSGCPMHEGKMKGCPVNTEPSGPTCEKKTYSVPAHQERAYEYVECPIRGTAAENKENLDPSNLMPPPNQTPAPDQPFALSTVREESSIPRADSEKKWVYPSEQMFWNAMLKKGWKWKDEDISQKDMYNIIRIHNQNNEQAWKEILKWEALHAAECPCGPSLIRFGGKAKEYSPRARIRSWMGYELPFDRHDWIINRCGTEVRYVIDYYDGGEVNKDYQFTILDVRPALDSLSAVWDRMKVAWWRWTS
# [26] = molecular target: Heterogeneous nuclear ribonucleoprotein U-like protein 1 (Homo sapiens) (UniProt Q9BUJ2)
# [27] = molecular target: Trifunctional enzyme subunit alpha, mitochondrial (Homo sapiens) (UniProt P40939)
# [28] = molecular target: Ephrin type-B receptor 2 (Homo sapiens) (UniProt P29323)
# [29] = molecular target: Small ribosomal subunit protein uS9 (Homo sapiens) (UniProt P62249)
# [30] = molecular target: D-3-phosphoglycerate dehydrogenase (Homo sapiens) (UniProt O43175)
# [31] = molecular target: TRAF2 and NCK-interacting protein kinase (Homo sapiens) (UniProt Q9UKE5)
# [32] = molecular target: Phosphorylase kinase beta subunit (Homo sapiens) (UniProt Q93100)
# Phosphorylase kinase beta subunit (Homo sapiens), sequence (Q93100 whole entry): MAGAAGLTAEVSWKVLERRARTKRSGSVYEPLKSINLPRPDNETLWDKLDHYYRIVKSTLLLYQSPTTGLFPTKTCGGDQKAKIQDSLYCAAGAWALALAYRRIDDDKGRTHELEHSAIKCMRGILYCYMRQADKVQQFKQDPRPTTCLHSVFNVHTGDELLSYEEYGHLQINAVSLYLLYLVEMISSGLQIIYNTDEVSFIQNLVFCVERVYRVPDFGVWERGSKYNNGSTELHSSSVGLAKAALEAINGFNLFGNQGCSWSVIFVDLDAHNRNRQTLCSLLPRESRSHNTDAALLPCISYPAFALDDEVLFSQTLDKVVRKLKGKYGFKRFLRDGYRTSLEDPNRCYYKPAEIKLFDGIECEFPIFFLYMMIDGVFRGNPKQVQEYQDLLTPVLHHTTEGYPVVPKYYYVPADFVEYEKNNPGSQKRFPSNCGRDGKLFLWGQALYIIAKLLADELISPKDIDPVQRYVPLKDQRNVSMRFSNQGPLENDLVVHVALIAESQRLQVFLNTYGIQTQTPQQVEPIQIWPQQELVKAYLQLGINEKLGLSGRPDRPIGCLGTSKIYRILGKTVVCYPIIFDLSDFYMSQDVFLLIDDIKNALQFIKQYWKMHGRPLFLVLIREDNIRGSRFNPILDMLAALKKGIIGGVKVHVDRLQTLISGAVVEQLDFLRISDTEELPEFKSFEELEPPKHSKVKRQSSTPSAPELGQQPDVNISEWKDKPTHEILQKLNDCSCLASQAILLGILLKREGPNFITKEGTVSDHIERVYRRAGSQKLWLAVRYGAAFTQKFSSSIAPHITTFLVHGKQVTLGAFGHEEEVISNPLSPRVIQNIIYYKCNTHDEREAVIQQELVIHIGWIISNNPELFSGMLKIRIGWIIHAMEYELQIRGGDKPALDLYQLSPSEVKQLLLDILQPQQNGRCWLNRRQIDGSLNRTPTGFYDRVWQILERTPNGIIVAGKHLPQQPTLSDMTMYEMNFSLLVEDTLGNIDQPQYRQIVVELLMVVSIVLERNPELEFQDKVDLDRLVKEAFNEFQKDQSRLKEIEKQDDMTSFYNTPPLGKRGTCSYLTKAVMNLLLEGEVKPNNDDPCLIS
# [33] = molecular target: Interleukin-1 receptor-associated kinase 3 (Homo sapiens) (UniProt Q9Y616)
# [34] = molecular target: Pyruvate dehydrogenase E1 component subunit alpha, somatic form, mitochondrial (Homo sapiens) (UniProt P08559)
# [35] = molecular target: E3 ubiquitin/ISG15 ligase TRIM25 (Homo sapiens) (UniProt Q14258)
# E3 ubiquitin/ISG15 ligase TRIM25 (Homo sapiens), sequence (Q14258 whole entry): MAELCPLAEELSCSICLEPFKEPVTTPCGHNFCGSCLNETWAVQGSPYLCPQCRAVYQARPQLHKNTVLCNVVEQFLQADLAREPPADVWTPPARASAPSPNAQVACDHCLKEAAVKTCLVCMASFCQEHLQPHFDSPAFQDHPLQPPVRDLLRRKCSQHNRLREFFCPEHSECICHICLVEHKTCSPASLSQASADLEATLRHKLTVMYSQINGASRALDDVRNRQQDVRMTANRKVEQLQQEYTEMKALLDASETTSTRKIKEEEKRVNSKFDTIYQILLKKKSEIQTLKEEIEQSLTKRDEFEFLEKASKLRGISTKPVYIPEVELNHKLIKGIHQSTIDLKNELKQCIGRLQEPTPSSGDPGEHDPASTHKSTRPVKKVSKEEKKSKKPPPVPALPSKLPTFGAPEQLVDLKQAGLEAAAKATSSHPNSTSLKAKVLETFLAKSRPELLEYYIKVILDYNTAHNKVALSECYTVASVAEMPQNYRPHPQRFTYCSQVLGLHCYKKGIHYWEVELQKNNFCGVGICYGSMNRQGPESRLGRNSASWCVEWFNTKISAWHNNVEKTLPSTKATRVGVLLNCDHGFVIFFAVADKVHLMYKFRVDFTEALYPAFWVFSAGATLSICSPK
# Vinculin (Homo sapiens) = Vinculin (Homo sapiens) (UniProt P18206)
# [36] = molecular target: Syndecan-1 (Homo sapiens) (UniProt P18827)
# [37] = molecular target: Serine/arginine-rich splicing factor 1 (Homo sapiens) (UniProt Q07955)
# [38] = molecular target: RNA-binding protein EWS (Homo sapiens) (UniProt Q01844)
# [39] = molecular target: Synaptosomal-associated protein 23 (Homo sapiens) (UniProt O00161)
# [40] = molecular target: Cystatin-B (Homo sapiens) (UniProt P04080)
# [41] = molecular target: Leucine-rich repeat-containing protein 59 (Homo sapiens) (UniProt Q96AG4)
# [42] = molecular target: Inner centromere protein (Homo sapiens) (UniProt Q9NQS7)
# [43] = molecular target: Mitochondrial import inner membrane translocase subunit TIM44 (Homo sapiens) (UniProt O43615)
# Mitochondrial import inner membrane translocase subunit TIM44 (Homo sapiens), sequence (O43615 whole entry): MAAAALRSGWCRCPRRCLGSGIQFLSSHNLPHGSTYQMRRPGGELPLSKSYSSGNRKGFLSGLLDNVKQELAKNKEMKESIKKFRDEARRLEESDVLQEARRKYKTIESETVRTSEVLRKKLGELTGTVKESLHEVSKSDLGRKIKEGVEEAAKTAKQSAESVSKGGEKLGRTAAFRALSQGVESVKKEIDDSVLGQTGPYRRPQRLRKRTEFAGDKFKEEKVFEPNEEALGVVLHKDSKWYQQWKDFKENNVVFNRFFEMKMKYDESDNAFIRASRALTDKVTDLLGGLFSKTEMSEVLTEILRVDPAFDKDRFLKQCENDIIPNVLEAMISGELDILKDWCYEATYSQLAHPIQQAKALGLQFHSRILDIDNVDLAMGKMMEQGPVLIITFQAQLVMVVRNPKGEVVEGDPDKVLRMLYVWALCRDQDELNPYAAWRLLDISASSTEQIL
# [44] = molecular target: Succinate--CoA ligase [ADP-forming] subunit beta, mitochondrial (Homo sapiens) (UniProt Q9P2R7)
# Succinate--CoA ligase [ADP-forming] subunit beta, mitochondrial (Homo sapiens), sequence (Q9P2R7 whole entry): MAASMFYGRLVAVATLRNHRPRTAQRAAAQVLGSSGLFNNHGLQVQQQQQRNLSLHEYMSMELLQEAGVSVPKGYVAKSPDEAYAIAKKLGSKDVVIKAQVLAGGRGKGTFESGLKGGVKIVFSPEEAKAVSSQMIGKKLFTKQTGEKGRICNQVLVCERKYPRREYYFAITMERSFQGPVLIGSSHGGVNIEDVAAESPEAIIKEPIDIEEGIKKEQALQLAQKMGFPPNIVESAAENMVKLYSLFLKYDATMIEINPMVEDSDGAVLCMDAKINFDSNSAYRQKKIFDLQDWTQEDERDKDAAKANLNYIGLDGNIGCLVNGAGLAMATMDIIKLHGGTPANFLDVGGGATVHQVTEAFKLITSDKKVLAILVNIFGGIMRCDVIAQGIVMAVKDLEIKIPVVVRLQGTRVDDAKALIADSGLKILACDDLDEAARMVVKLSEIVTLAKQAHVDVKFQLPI
# [45] = molecular target: Cytochrome b-c1 complex subunit 2, mitochondrial (Homo sapiens) (UniProt P22695)
# Cytochrome b-c1 complex subunit 2, mitochondrial (Homo sapiens), sequence (P22695 whole entry, one chain of several): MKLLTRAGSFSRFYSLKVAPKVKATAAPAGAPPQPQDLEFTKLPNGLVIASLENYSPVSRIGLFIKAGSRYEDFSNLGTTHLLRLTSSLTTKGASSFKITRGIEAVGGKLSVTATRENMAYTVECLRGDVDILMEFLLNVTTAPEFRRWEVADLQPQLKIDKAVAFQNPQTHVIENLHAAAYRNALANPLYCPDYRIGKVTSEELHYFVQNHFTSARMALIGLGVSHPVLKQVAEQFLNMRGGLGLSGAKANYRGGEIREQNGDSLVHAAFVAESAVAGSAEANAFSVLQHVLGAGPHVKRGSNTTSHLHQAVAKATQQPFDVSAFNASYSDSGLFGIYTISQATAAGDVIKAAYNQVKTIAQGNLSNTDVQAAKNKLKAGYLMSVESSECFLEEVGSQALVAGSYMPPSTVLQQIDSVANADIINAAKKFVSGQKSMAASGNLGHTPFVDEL
# Also: assay method not described here.
# Very-long-chain enoyl-CoA reductase (Homo sapiens), sequence (Q9NZ01 whole entry): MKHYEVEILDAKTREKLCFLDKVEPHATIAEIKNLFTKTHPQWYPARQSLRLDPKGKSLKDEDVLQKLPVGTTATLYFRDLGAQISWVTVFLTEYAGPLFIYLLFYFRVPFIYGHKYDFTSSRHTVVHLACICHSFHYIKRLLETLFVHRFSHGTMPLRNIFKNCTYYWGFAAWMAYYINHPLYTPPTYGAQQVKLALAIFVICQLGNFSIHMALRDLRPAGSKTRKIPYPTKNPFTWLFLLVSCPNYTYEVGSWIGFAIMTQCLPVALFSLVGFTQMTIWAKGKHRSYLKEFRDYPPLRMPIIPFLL
compound,measurement,setting,value
Cc1ccc(C(=O)Nc2cccc(C(F)(F)F)c2)cc1Nc1nc(-c2cccnc2)nc2nn(C)cc12,ED50,[1],53.5 nM
same,ED50,[2],30.5 nM
same,ED50,[3],10600 nM
same,ED50,[4],1310 nM
same,ED50,[5],57.4 nM
same,ED50,[6],58.1 nM
same,ED50,[7],1630 nM
same,ED50,[8],806 nM
same,ED50,[9],3140 nM
same,ED50,[10],7060 nM
same,ED50,[11],90.7 nM
same,ED50,[12],7190 nM
same,ED50,[13],11.4 nM
same,ED50,[14],135 nM
same,ED50,[15],3850 nM
same,ED50,[16],1340 nM
same,ED50,[17],543 nM
same,ED50,[18],83.6 nM
same,ED50,[19],0.276 nM
same,ED50,[20],60500 nM
same,ED50,[21],928 nM
same,ED50,[22],35500 nM
same,ED50,[23],22.2 nM
same,ED50,Homo sapiens,41.8 nM
same,ED50,[24],29900 nM
same,ED50,[25],144 nM
same,ED50,[26],2560 nM
same,ED50,[27],59.5 nM
same,ED50,[28],6160 nM
same,ED50,[29],345 nM
same,ED50,[30],15000 nM
same,ED50,[31],75.1 nM
same,ED50,[32],384 nM
same,ED50,[33],26.2 nM
same,ED50,[34],492 nM
same,ED50,[35],52.8 nM
same,ED50,Vinculin (Homo sapiens),68100 nM
same,ED50,[36],1070 nM
same,ED50,[37],56.2 nM
same,ED50,[38],11800 nM
same,ED50,[39],416 nM
same,ED50,[40],12800 nM
same,ED50,[41],8.2 nM
same,ED50,[42],229 nM
same,ED50,[43],310 nM
same,ED50,[44],2390 nM
same,ED50,[45],6.16 nM
Cc1ccc(C(=O)Nc2cccc(C(F)(F)F)c2)cc1Nc1nc(-c2cccnc2)nc2c1cnn2C,ED50,[1],6430 nM
same,ED50,[2],2730 nM
same,ED50,[3],9930 nM
same,ED50,[4],3860 nM
same,ED50,[5],3.67 nM
same,ED50,[6],0.993 nM
same,ED50,[7],39.5 nM
same,ED50,[8],8.95 nM
same,ED50,[9],2260 nM
same,ED50,[10],224000 nM
same,ED50,[11],86.3 nM
same,ED50,[12],16.3 nM
same,ED50,[13],547 nM
same,ED50,[14],4600 nM
same,ED50,[15],18.8 nM
same,ED50,[16],1660 nM
same,ED50,[17],1.62 nM
same,ED50,[18],11.7 nM
same,ED50,[19],248 nM
same,ED50,[20],1340 nM
same,ED50,[21],813 nM
same,ED50,[22],108 nM
same,ED50,[23],4610 nM
same,ED50,Homo sapiens,4250 nM
same,ED50,[24],16.3 nM
same,ED50,[25],88.8 nM
same,ED50,[26],922 nM
same,ED50,[27],877 nM
same,ED50,[28],2940 nM
same,ED50,[29],49.7 nM
same,ED50,[30],9.45 nM
same,ED50,[31],23200 nM
same,ED50,[32],12800 nM
same,ED50,[33],1340 nM
same,ED50,[34],101 nM
same,ED50,[35],401000 nM
same,ED50,Vinculin (Homo sapiens),359 nM
same,ED50,[36],1770 nM
same,ED50,[37],9120 nM
same,ED50,[38],54100 nM
same,ED50,[39],11200 nM
same,ED50,[40],6950 nM
same,ED50,[41],163 nM
same,ED50,[42],3420 nM
same,ED50,[43],445 nM
same,ED50,[44],5030 nM
same,ED50,[45],5.84 nM
